Laboratory results as given in patent US20050239656A1, “Pyridine compounds or salts thereof and herbicides containing the same” (priority 2002, published 2005).

Key:
velvetleaf [1] = experiment: Test Example 2: soil surface treatment, upland pot test; type: in vivo, Abutilon theophrasti MEDIC.; settings: active ingredient 1000 g/ha, observed 20th to 28th day
Method in brief: (§1)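 Sowing, then next-day soil-surface spray of formulated test compound (fixed a.i. amount, 1,500 L/ha spray volume); visual evaluation of growth inhibition, 0–100%, three to four weeks (days 20–28) after application.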

crabgrass [2] = experiment: Test Example 2: soil surface treatment, upland pot test; type: in vivo, Digitaria sanguinalis L.; settings: active ingredient 1000 g/ha, observed 20th to 28th day
Method in brief: as §1

japanese ribbon wapato = experiment: Test Example 3: paddy pot test, application under submerged conditions; type: in vivo, Sagittaria pygniaea; settings: submerged application at primary leaf stage, visually observed 14 days after application, 0 = non-treated, 100 = complete kill
Method in brief: (§2)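 Visual growth-control rating (0 = untreated, 100 = complete kill) 14 days after treatment. The formulated compound, as a diluted wettable powder or emulsifiable concentrate, went into 3–4 cm flood water at a predetermined active-ingredient dose once the weeds reached 0.5 leaf stage (wapato: primary leaf stage).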

soybean [3] = experiment: Test Example 2: soil surface treatment, upland pot test; type: in vivo, Glycine max Merr.; settings: active ingredient 1000 g/ha, observed 20th to 28th day
Method in brief: as §1

japanese bulrush = experiment: Test Example 3: paddy pot test, application under submerged conditions; type: in vivo, Scirpus juncoides; settings: submerged application at 0.5 leaf stage, visually observed 14 days after application, 0 = non-treated, 100 = complete kill
Method in brief: as §2

prickly sida [4] = experiment: Test Example 2: soil surface treatment, upland pot test; type: in vivo, Sida spinosa L.; settings: active ingredient 1000 g/ha, observed 20th to 28th day
Method in brief: as §1

redroot pigweed [5] = experiment: Test Example 1: foliage treatment, upland pot test; type: in vivo, Amaranthus retroflexus L.; settings: active ingredient 1000 g/ha, observed 18th to 23rd day, 0 = non-treated, 100 = complete kill
corn [6] = experiment: Test Example 1: foliage treatment, upland pot test; type: in vivo, Zea mays L.; settings: crop, active ingredient 1000 g/ha, observed 18th to 23rd day, 0 = non-treated, 100 = complete kill
Method in brief: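 In this upland pot foliage test, corn plants at 2.1 to 3.2 leaf stages were sprayed by a small size sprayer. The spray was a conventionally formulated wettable powder or emulsifiable concentrate weighed to a set active ingredient amount, diluted in water at 500 L/ha, plus 0.1% (v/v) agricultural spreader. Visual assessment on days 18 to 23 gave growth controlling degree (%), where 0 equals untreated and 100 means complete kill.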

rice [7] = experiment: Test Example 1: foliage treatment, upland pot test; type: in vivo, Oryza sativa L.; settings: crop, active ingredient 1000 g/ha, observed 18th to 23rd day, 0 = non-treated, 100 = complete kill
Method in brief: (§3)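 Visual growth-control score, 0% (like untreated) to 100% (complete kill), taken on days 18 to 23 after foliar spraying. Leaf stage at treatment: barnyardgrass 1.3–2.8, rice 1.2–2.6, wheat 1.3–2.4, soybean 0.1–0.4. Spray: wettable powder or EC in 500 L/ha water, 0.1% v/v spreader added.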

wheat [8] = experiment: Test Example 2: soil surface treatment, upland pot test; type: in vivo, Triticum spp.; settings: active ingredient 1000 g/ha, observed 20th to 28th day
Method in brief: as §1

green foxtail [9] = experiment: as above; type: in vivo, Setaria viridis L.; settings: active ingredient 1000 g/ha, observed 20th to 28th day
Method in brief: as §1

rice [10] = experiment: as above; type: in vivo, Oryza sativa L.; settings: active ingredient 1000 g/ha, observed 20th to 28th day
Method in brief: as §1

crabgrass [11] = experiment: Test Example 1: foliage treatment, upland pot test; type: in vivo, Digitaria sanguinalis L.; settings: active ingredient 1000 g/ha, observed 18th to 23rd day, 0 = non-treated, 100 = complete kill
wheat [12] = experiment: Test Example 1: foliage treatment, upland pot test; type: in vivo, Triticum spp.; settings: crop, active ingredient 1000 g/ha, observed 18th to 23rd day, 0 = non-treated, 100 = complete kill
Method in brief: as §3

soybean [13] = experiment: Test Example 1: foliage treatment, upland pot test; type: in vivo, Glycine max Merr.; settings: crop, active ingredient 1000 g/ha, observed 18th to 23rd day, 0 = non-treated, 100 = complete kill
Method in brief: as §3

barnyardgrass [14] = experiment: Test Example 2: soil surface treatment, upland pot test; type: in vivo, Echinochloa crus-galli L.; settings: active ingredient 1000 g/ha, observed 20th to 28th day, 0 = non-treated, 100 = complete kill
Method in brief: as §1

barnyardgrass [15] = experiment: Test Example 1: foliage treatment, upland pot test; type: in vivo, Echinochloa crus-galli L.; settings: active ingredient 1000 g/ha, observed 18th to 23rd day, 0 = non-treated, 100 = complete kill
Method in brief: as §3

rice (var. Nihonbare) = experiment: Test Example 3: paddy pot test, transplanted rice; type: in vivo, Oryza sativa L.; settings: applied 4th day after transplantation, visually observed 21st day after application, 0 = non-treated, 100 = complete kill
Method in brief: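 Rice (var. Nihonbare) at 2 leaf stage transplanted 3 cm deep into puddled paddy soil under 3–4 cm flooding; on day 4 after transplanting, diluted wettable powder or emulsifiable concentrate applied by pipette under submerged conditions at a set active-ingredient dose. Growth scored visually 21 days after application, 0 (untreated) to 100 (complete kill) %.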

green foxtail [16] = experiment: Test Example 1: foliage treatment, upland pot test; type: in vivo, Setaria viridis L.; settings: active ingredient 1000 g/ha, observed 18th to 23rd day, 0 = non-treated, 100 = complete kill
velvetleaf [17] = experiment: Test Example 1: foliage treatment, upland pot test; type: in vivo, Abutilon theophrasti MEDIC.; settings: active ingredient 1000 g/ha, observed 18th to 23rd day, 0 = non-treated, 100 = complete kill
corn [18] = experiment: Test Example 2: soil surface treatment, upland pot test; type: in vivo, Zea mays L.; settings: active ingredient 1000 g/ha, observed 20th to 28th day
Method in brief: as §1

prickly sida [19] = experiment: Test Example 1: foliage treatment, upland pot test; type: in vivo, Sida spinosa L.; settings: active ingredient 1000 g/ha, observed 18th to 23rd day, 0 = non-treated, 100 = complete kill
redroot pigweed [20] = experiment: Test Example 2: soil surface treatment, upland pot test; type: in vivo, Amaranthus retroflexus L.; settings: active ingredient 1000 g/ha, observed 20th to 28th day
Method in brief: as §1

barnyardgrass [21] = experiment: Test Example 3: paddy pot test, application under submerged conditions; type: in vivo, Echinochloa crus-galli L.; settings: submerged application at 0.5 leaf stage, visually observed 14 days after application, 0 = non-treated, 100 = complete kill
Method in brief: as §2

tall morningglory = experiment: Test Example 1: foliage treatment, upland pot test; type: in vivo, Ipomoea purpurea L.; settings: active ingredient 1000 g/ha, observed 18th to 23rd day, 0 = non-treated, 100 = complete kill

melting point | Compound | Growth controlling degree (%) Velvetleaf (velvetleaf [1]) | Growth controlling degree (%) Crabgrass (crabgrass [2]) | Growth controlling degree (%) Japanese ribbon wapato (japanese ribbon wapato; active ingredient 500 g/ha) | Growth controlling degree (%) Soyabean (soybean [3]) | Growth controlling degree (%) Japanese bulrush (japanese bulrush; active ingredient 500 g/ha) | Growth controlling degree (%) Prickly sida (prickly sida [4]) | Growth controlling degree (%) Redroot pigweed (redroot pigweed [5]) | Growth controlling degree (%) Corn (corn [6]) | Growth controlling degree (%) Rice (rice [7]) | Growth controlling degree (%) wheat (wheat [8]) | Growth controlling degree (%) Green foxtail (green foxtail [9]) | Growth controlling degree (%) Rice (rice [10]) | Growth controlling degree (%) Crabgrass (crabgrass [11]) | Growth controlling degree (%) wheat (wheat [12]) | Growth controlling degree (%) Soybean (soybean [13]) | Growth controlling degree (%) Barnyardgrass (barnyardgrass [14]) | Growth controlling degree (%) Barnyardgrass (barnyardgrass [15]) | Growth controlling degree (%) Rice (rice (var. Nihonbare); active ingredient 500 g/ha) | Growth controlling degree (%) Green foxtail (green foxtail [16]) | other results
71.2 °C | CC(C)C(c1cnccc1C(F)(F)F)N(C)C(=O)Cc1ccccc1 (stereo not drawn) [I-1, N-methyl-N-[2-methyl-1-(4-trifluoromethylpyridin-3-yl)propyl]phenylacetamide] | 80% | 100% | 95% | 50% | 98% | 70% | 70% | 70% | 60% | 50% | 100% | 80% | 80% | 60% | 80% | 90% | 80% | 60% | 70% | Growth controlling degree (%) Velvetleaf (velvetleaf [17]): 90%; Growth controlling degree (%) Corn (corn [18]): 70%; Growth controlling degree (%) Prickly sida (prickly sida [19]): 80%; Growth controlling degree (%) Redroot pigweed (redroot pigweed [20]): 80%
121.9 °C | CCN(C(=O)Cc1c(F)cccc1F)C(c1cnccc1C(F)(F)F)C(C)C (stereo not drawn) [I-30, N-ethyl-N-[2-methyl-1-(4-trifluoromethylpyridin-3-yl)propyl]2,6-difluorophenylacetamide] |  |  |  |  |  |  |  |  |  |  |  |  |  |  |  |  |  |  |  | Growth controlling degree (%) Japanese ribbon wapato (japanese ribbon wapato; active ingredient 250 g/ha): 80%; Growth controlling degree (%) Japanese bulrush (japanese bulrush; active ingredient 250 g/ha): 90%; Growth controlling degree (%) Barnyardgrass (barnyardgrass [21]; active ingredient 250 g/ha): 100%; Growth controlling degree (%) Rice (rice (var. Nihonbare); active ingredient 250 g/ha): 0%
 | CC(C)C(c1cnccc1C(F)(F)F)N(C)C(=O)Cc1ccc(Br)cc1 (stereo not drawn) [I-10] | 60% | 100% | 10% | 30% | 98% | 60% | 90% | 60% | 30% | 20% | 100% | 30% | 95% | 30% | 90% | 100% | 90% | 10% | 90% | Growth controlling degree (%) Barnyardgrass (barnyardgrass [21]; active ingredient 500 g/ha): 100%; Growth controlling degree (%) Velvetleaf (velvetleaf [17]): 95%; Growth controlling degree (%) Corn (corn [18]): 10%; Growth controlling degree (%) Prickly sida (prickly sida [19]): 90%; Growth controlling degree (%) Redroot pigweed (redroot pigweed [20]): 60%; Growth controlling degree (%) Tall morningglory (tall morningglory): 95%
